Assay results as given in US20260226073A1 (AURIGENE ONCOLOGY LIMITED, priority 2023, published 2026).

Columns and labels:
[1] = tested on: NFAT signaling pathway in Jurkat NFAT reporter cells; experiment: Jurkat NFAT reporter assay; assay type: cell-based; details: Homo sapiens, 30 min with compound, then soluble anti-human CD3/CD28 antibody for 6 hours, luciferase readout, read-out: EC50 (Group)
Description: A human T lymphocyte Jurkat reporter cell line was further used to assess activation of the nuclear factor of activated T-cells (NFAT) signaling pathway by Cbl-b inhibitors. The reporter cell line is a genetically engineered Jurkat T cell line that expresses a luciferase reporter driven by an NFAT-response element (NFAT-RE). The Cbl-b inhibitor was incubated with 1×10^5 Jurkat NFAT reporter cells per well for 30 minutes. Subsequently, cells were stimulated with soluble anti-human CD3/CD28 antibody for 6 hours resulting in NFAT-RE-mediated luminescence. The bioluminescent signal is detected and quantified using Bio-Glo™ Luciferase Assay System. Readouts were reported as fold change over baseline. Here, baseline was the measurement obtained from Jurkat NFAT reporter cells stimulated with anti-CD3 antibody and anti-CD28 antibody, where the cells were not incubated with a Cbl-b inhibitor.

[2] = molecular target: T1, human recombinant CBL-b (human Biotin CBL-b recombinant protein a.a. 39-426) (Homo sapiens, UniProt Q13191); experiment: Biochemical assay for CBL-b inhibition (ligand displacement TR-FRET); assay type: binding; details: 50 nM CBL-b, 0.3 μM Bodipy FL-Probe, read-out: IC50 (CBL-b inhibition, group)
T1 construct: human Biotin CBL-b recombinant protein a.a; 39-426; Biotin (biotinylated); made in house
T1 sequence (Q13191 39-426): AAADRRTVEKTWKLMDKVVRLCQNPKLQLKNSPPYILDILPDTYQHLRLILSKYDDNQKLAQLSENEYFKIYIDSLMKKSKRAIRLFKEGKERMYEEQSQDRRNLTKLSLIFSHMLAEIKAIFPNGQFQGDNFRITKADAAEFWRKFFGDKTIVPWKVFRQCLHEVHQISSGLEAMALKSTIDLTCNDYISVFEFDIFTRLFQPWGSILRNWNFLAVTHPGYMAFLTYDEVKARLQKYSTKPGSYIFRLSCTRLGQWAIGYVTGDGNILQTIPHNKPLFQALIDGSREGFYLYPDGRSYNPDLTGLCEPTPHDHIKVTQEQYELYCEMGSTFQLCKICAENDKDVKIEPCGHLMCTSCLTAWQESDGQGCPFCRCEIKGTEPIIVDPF
Procedure, shortened: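 Ligand-displacement TR-FRET: 0.3 μM Bodipy FL probe competes with compound for 50 nM biotin-CBL-b (aa 39-426) after a 60 min RT compound pre-incubation; terbium-streptavidin detection, 60 min each step. Dose-response sigmoidal fitting gave IC50 and % maximum inhibition.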

| SMILES | EC50 [1] [nM] | IC50 [2] [nM] |
| --- | --- | --- |
| C[C@H]1CCCN(Cc2cc(N3CCCCC3)cc(N3Cc4ccc(C5(Cc6nncn6C)COC5)cc4C3=O)c2)C1 [Compound 14, (S)-6-(3-((4-Methyl-4H-1,2,4-triazol-3-yl)methyl)oxetan-3-yl)-2-(3-((3-methyl-piperidin-1-yl)methyl)-5-(piperidin-1-yl)phenyl)isoindolin-1-one] | 1000 to 10000 | 300 to 5000 |
| C[C@H]1CCCN(Cc2cc(N3Cc4ccc(C5(Cc6nncn6C)COC5)cc4C3=O)cc(C(F)(F)F)n2)C1 [Compound 17, (S)-6-(3-((4-Methyl-4H-1,2,4-triazol-3-yl)methyl)oxetan-3-yl)-2-(2-((3-methyl-piperidin-1-yl)methyl)-6-(trifluoromethyl)pyridin-4-yl)isoindolin-1-one] | 1000 to 10000 | 300 to 5000 |
| Cc1cc(CNCC2CC2)cc(N2Cc3ccc(C4(Cc5nncn5C)COC4)cc3C2=O)c1 [Compound 18, 2-(3-(((Cyclopropylmethyl)amino)methyl)-5-methylphenyl)-6-(3-((4-methyl-4H-1,2,4-triazol-3-yl)methyl)oxetan-3-yl)isoindolin-1-one] | 1000 to 10000 | < 80 |
| Cc1cc(N2Cc3ccc(C4(Cc5nncn5C)COC4)cc3C2=O)cc(CN2CCC[C@H](C)C2)n1 [Compound 23, (S)-6-(3-((4-Methyl-4H-1,2,4-triazol-3-yl)methyl)oxetan-3-yl)-2-(2-methyl-6-((3-methylpiperidin-1-yl)methyl)pyridin-4-yl)isoindolin-1-one] | 1000 to 10000 | 80 to 300 |
| Cn1cnnc1CC1(c2ccc3c(c2)C(=O)N(c2cc(CN4CCCC(C#N)C4)cc(C(F)(F)F)n2)C3)COC1 (stereo not shown) [Compound 29, 1-((2-(6-(3-((4-Methyl-4H-1,2,4-triazol-3-yl)methyl)oxetan-3-yl)-1-oxoisoindo-lin-2-yl)-6-(trifluoromethyl)pyridin-4-yl)methyl)piperidine-3-carbonitrile] | 1000 to 10000 | 80 to 300 |
| Cn1cnnc1CC1(c2ccc3c(c2)C(=O)N(c2cc(CN4CCC[C@H](O)C4)cc(C(F)(F)F)n2)C3)COC1 [Compound 30, (S)-2-(4-((3-Hydroxypiperidin-1-yl)methyl)-6-(trifluoromethyl)pyridin-2-yl)-6-(3-((4-methyl-4H-1,2,4-triazol-3-yl)methyl)oxetan-3-yl)isoindolin-1-one] | 1000 to 10000 | 300 to 5000 |
| Cn1cnnc1CC1(c2ccc3c(c2)C(=O)N(c2cc(CN4CCc5ccccc5C4)cc(C(F)(F)F)n2)C3)COC1 [Compound 31, 2-(4-((3,4-Dihydroisoquinolin-2(1H)-yl)methyl)-6-(trifluoromethyl)pyridin-2-yl)-6-(3-((4-methyl-4H-1,2,4-triazol-3-yl)methyl)oxetan-3-yl)isoindolin-1-one] | 1000 to 10000 | 300 to 5000 |
| Cn1cnnc1CC1(c2ccc3c(c2)C(=O)N(c2cc(CN4CCCC(F)C4)cc(C(F)(F)F)n2)C3)COC1 (stereo not shown) [Compound 33, 2-(4-((3-Fluoropiperidin-1-yl)methyl)-6-(trifluoromethyl)pyridin-2-yl)-6-(3-((4-methyl-4H-1,2,4-triazol-3-yl)methyl)oxetan-3-yl)isoindolin-1-one] | 1000 to 10000 | 300 to 5000 |
| Cn1cnnc1CC1(c2ccc3c(c2)C(=O)N(c2cc(CN4CCCC(CO)C4)cc(C(F)(F)F)n2)C3)COC1 (stereo not shown) [Compound 37, 2-(4-((3-(Hydroxymethyl)piperidin-1-yl)methyl)-6-(trifluoromethyl)pyridin-2-yl)-6-(3-((4-methyl-4H-1,2,4-triazol-3-yl)methyl)oxetan-3-yl)isoindolin-1-one] | 1000 to 10000 | 80 to 300 |
| CC1CCCCN1Cc1cc(N2Cc3ccc(C4(Cc5nncn5C)COC4)cc3C2=O)nc(C(F)(F)F)c1 (stereo not shown) [Compound 45, 6-(3-((4-Methyl-4H-1,2,4-triazol-3-yl)methyl)oxetan-3-yl)-2-(4-((2-methyl-piperidin-1-yl)methyl)-6-(trifluoromethyl)pyridin-2-yl)isoindolin-1-one] | 1000 to 10000 | 300 to 5000 |
| C[C@@H]1CN(Cc2cc(N3Cc4ccc(C5(Cc6nncn6C)COC5)cc4C3=O)nc(C(F)(F)F)c2)CCO1 [Compound 46, (R)-6-(3-((4-Methyl-4H-1,2,4-triazol-3-yl)methyl)oxetan-3-yl)-2-(4-((2-methyl-morpholino)methyl)-6-(trifluoromethyl)pyridin-2-yl)isoindolin-1-one] | 1000 to 10000 | 300 to 5000 |
| Cn1cnnc1CC1(c2ccc3c(c2)C(=O)N(c2cc(CN4CCCC(F)(F)C4)cc(C(F)(F)F)n2)C3)COC1 [Compound 47, 2-(4-((3,3-Difluoropiperidin-1-yl)methyl)-6-(trifluoromethyl)pyridin-2-yl)-6-(3-((4-methyl-4H-1,2,4-triazol-3-yl)methyl)oxetan-3-yl)isoindolin-1-one] | 1000 to 10000 | 80 to 300 |

Other lines, results leading:

| EC50 [1] [nM] | IC50 [2] [nM] | SMILES |
| --- | --- | --- |
| 1000 to 10000 | 80 to 300 | Cn1cnnc1CC1(c2ccc3c(c2)C(=O)N(c2cc(CNCC4CC4)cc(C(F)(F)F)c2)C3)COC1 [Compound 13, 2-(3-(((Cyclopropylmethyl)amino)methyl)-5-(trifluoromethyl)phenyl)-6-(3-((4-methyl-4H-1,2,4-triazol-3-yl)methyl)oxetan-3-yl)isoindolin-1-one] |
| 300 to 1000 | 80 to 300 | CC(C)c1cc(CN2CCC[C@H](C)C2)cc(N2Cc3ccc(C4(Cc5nncn5C)COC4)cc3C2=O)c1 [Compound 15, (S)-2-(3-Isopropyl-5-((3-methylpiperidin-1-yl)methyl)phenyl)-6-(3-((4-methyl-4H-1,2,4-triazol-3-yl)methyl)oxetan-3-yl)isoindolin-1-one] |
| 300 to 1000 | 80 to 300 | C[C@H]1CCCN(Cc2cc(N3Cc4ccc(C5(Cc6nncn6C)COC5)cc4C3=O)cc(C(C)(C)C)c2)C1 [Compound 16, (S)-2-(3-(tert-Butyl)-5-((3-methylpiperidin-1-yl)methyl)phenyl)-6-(3-((4-methyl-4H-1,2,4-triazol-3-yl)methyl)oxetan-3-yl)isoindolin-1-one] |
| 300 to 1000 | < 80 | Cc1cc(CNCCC(F)(F)F)cc(N2Cc3ccc(C4(Cc5nncn5C)COC4)cc3C2=O)c1 [Compound 19, 6-(3-((4-Methyl-4H-1,2,4-triazol-3-yl)methyl)oxetan-3-yl)-2-(3-methyl-5-(((3,3,3-trifluoropropyl)amino)methyl)phenyl)isoindolin-1-one] |
| 300 to 1000 | 80 to 300 | Cc1cc(CNCC2CC2(F)F)cc(N2Cc3ccc(C4(Cc5nncn5C)COC4)cc3C2=O)c1 (stereo not shown) [Compound 20, 2-(3-((((2,2-Difluorocyclopropyl)methyl)amino)methyl)-5-methylphenyl)-6-(3-((4-methyl-4H-1,2,4-triazol-3-yl)methyl)oxetan-3-yl)isoindolin-1-one] |
| < 300 | < 80 | Cc1cc(CN2CCC[C@H](C)C2)cc(N2Cc3ccc(C4(Cc5nncn5C)COC4)cc3C2=O)n1 [Compound 26, (S)-2-(6-Methyl-4-((3-methylpiperidin-1-yl)methyl)pyridin-2-yl)-6-(3-((4-methyl-4H-1,2,4-triazol-3-yl)methyl)oxetan-3-yl)isoindolin-1-one] |
| < 300 | < 80 | Cn1cnnc1CC1(c2ccc3c(c2)C(=O)N(c2cc(CN4CCC[C@H](C(F)(F)F)C4)cc(C(F)(F)F)n2)C3)COC1 [Compound 27, (S)-6-(3-((4-Methyl-4H-1,2,4-triazol-3-yl)methyl)oxetan-3-yl)-2-(6-(trifluoro-methyl)-4-((3-(trifluoromethyl)piperidin-1-yl)methyl)pyridin-2-yl)isoindolin-1-one] |
| 300 to 1000 | 80 to 300 | CC1CN(Cc2cc(N3Cc4ccc(C5(Cc6nncn6C)COC5)cc4C3=O)nc(C(F)(F)F)c2)CCC1(F)F (stereo not shown) [Compound 28, 2-(4-((4,4-Difluoro-3-methylpiperidin-1-yl)methyl)-6-(trifluoromethyl)pyridin-2-yl)-6-(3-((4-methyl-4H-1,2,4-triazol-3-yl)methyl)oxetan-3-yl)isoindolin-1-one] |
| 300 to 1000 | 80 to 300 | C[C@H]1CCN(Cc2cc(N3Cc4ccc(C5(Cc6nncn6C)COC5)cc4C3=O)nc(C(F)(F)F)c2)C1 [Compound 34, (S)-6-(3-((4-Methyl-4H-1,2,4-triazol-3-yl)methyl)oxetan-3-yl)-2-(4-((3-methyl-pyrrolidin-1-yl)methyl)-6-(trifluoromethyl)pyridin-2-yl)isoindolin-1-one] |
| 300 to 1000 | < 80 | C[C@H]1C[C@H](C)CN(Cc2cc(N3Cc4ccc(C5(Cc6nncn6C)COC5)cc4C3=O)nc(C(F)(F)F)c2)C1 [Compound 42, 2-(4-(((3S,5S)-3,5-Dimethylpiperidin-1-yl)methyl)-6-(trifluoromethyl)pyridin-2-yl)-6-(3-((4-methyl-4H-1,2,4-triazol-3-yl)methyl)oxetan-3-yl)isoindolin-1-one] |
| 300 to 1000 | 80 to 300 | Cn1cnnc1CC1(c2ccc3c(c2)C(=O)N(c2cc(CN4CCC5(CC4)CC5)cc(C(F)(F)F)n2)C3)COC1 [Compound 44, 2-(4-((6-Azaspiro[2.5]octan-6-yl)methyl)-6-(trifluoromethyl)pyridin-2-yl)-6-(3-((4-methyl-4H-1,2,4-triazol-3-yl)methyl)oxetan-3-yl)isoindolin-1-one] |
